Experiments:
HiBit-BRM fusion protein = target: T1, HiBit-BRM fusion protein (Homo sapiens, UniProt P51531); assay: HiBiT-BRM cell-based degradation assay (Nano-Glo HiBiT Lytic Detection, 24 h); details: HeLa cell line expressing HiBiT-BRM; for DC50: read-out: BRM HiBit Degradation IC50
T1 construct: expressed in transfected cells
Procedure, shortened: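 Stable HiBiT-BRM HeLa line; 24 h compound exposure, top final 30 μM, 3-fold, 10 pts in duplicate. Lytic HiBiT/LgBiT luminescence readout. % degradation vs DMSO (0%) and 2 μM known BRM/BRG1 degrader (100%).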

[1] = target: T2, HiBit-BRG1 fusion protein (Homo sapiens, UniProt P51532); assay: HiBiT-BRG1 cell-based degradation assay (Nano-Glo HiBiT Lytic Detection, 24 h); details: HeLa cell line expressing HiBit-BRG1 and LgBit; for Dmax: read-out: BRG1 HiBit Degradation Maximum (%); for DC50: read-out: BRMG1 HiBit Degradation IC50
T2 construct: expressed in transfected cells
Procedure, shortened: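 Luminescence from reconstituted NanoBiT luciferase after lytic detection served as read-out of remaining HiBit-BRG1 in stable HeLa cells, which also express LgBit. Cells were seeded at 5000 per well and incubated with compound for 24 h. DMSO and a 2 μM known degrader defined the control range.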

T1 sequence (P51531 whole entry, the tested form may be a part): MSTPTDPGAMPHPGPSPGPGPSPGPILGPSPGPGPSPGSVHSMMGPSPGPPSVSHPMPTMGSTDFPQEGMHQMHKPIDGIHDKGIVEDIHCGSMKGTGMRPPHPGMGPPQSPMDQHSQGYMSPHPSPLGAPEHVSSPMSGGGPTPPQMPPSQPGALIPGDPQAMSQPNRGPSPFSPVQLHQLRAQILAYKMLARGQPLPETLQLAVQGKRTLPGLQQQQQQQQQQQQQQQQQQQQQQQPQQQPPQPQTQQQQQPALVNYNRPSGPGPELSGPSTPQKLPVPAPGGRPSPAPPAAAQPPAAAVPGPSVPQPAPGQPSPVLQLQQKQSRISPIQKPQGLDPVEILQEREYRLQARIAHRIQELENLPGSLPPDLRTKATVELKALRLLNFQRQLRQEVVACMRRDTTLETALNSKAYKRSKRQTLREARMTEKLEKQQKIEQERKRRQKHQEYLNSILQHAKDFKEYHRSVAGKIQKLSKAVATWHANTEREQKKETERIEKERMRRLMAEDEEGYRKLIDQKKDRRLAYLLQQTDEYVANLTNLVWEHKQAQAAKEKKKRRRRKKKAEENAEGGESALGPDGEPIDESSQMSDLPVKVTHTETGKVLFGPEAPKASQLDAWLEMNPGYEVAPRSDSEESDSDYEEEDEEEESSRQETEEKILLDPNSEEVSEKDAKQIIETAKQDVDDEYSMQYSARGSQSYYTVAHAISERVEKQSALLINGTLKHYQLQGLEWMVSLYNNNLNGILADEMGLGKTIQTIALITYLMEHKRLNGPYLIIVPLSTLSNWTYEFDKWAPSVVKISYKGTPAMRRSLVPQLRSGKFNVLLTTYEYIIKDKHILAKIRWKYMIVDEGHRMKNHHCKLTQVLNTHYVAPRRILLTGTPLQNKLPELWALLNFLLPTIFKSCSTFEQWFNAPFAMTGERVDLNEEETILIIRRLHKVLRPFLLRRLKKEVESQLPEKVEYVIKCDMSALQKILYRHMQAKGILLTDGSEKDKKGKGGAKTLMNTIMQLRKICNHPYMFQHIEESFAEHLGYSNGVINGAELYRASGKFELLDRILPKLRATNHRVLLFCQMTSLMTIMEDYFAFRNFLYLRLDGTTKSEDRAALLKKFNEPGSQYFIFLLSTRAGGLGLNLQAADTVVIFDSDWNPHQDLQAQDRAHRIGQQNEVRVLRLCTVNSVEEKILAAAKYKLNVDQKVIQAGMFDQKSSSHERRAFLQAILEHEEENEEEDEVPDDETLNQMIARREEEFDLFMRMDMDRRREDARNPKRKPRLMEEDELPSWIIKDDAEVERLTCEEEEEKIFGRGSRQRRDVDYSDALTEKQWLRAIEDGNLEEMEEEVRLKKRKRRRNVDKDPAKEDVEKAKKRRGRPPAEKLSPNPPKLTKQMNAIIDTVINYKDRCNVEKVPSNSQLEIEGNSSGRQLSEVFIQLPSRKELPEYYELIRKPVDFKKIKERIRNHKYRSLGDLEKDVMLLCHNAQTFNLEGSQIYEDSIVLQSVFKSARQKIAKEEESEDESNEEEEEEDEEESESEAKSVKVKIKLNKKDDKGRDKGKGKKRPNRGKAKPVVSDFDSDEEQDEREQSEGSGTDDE
T2 sequence (P51532 whole entry, the tested form may be a part): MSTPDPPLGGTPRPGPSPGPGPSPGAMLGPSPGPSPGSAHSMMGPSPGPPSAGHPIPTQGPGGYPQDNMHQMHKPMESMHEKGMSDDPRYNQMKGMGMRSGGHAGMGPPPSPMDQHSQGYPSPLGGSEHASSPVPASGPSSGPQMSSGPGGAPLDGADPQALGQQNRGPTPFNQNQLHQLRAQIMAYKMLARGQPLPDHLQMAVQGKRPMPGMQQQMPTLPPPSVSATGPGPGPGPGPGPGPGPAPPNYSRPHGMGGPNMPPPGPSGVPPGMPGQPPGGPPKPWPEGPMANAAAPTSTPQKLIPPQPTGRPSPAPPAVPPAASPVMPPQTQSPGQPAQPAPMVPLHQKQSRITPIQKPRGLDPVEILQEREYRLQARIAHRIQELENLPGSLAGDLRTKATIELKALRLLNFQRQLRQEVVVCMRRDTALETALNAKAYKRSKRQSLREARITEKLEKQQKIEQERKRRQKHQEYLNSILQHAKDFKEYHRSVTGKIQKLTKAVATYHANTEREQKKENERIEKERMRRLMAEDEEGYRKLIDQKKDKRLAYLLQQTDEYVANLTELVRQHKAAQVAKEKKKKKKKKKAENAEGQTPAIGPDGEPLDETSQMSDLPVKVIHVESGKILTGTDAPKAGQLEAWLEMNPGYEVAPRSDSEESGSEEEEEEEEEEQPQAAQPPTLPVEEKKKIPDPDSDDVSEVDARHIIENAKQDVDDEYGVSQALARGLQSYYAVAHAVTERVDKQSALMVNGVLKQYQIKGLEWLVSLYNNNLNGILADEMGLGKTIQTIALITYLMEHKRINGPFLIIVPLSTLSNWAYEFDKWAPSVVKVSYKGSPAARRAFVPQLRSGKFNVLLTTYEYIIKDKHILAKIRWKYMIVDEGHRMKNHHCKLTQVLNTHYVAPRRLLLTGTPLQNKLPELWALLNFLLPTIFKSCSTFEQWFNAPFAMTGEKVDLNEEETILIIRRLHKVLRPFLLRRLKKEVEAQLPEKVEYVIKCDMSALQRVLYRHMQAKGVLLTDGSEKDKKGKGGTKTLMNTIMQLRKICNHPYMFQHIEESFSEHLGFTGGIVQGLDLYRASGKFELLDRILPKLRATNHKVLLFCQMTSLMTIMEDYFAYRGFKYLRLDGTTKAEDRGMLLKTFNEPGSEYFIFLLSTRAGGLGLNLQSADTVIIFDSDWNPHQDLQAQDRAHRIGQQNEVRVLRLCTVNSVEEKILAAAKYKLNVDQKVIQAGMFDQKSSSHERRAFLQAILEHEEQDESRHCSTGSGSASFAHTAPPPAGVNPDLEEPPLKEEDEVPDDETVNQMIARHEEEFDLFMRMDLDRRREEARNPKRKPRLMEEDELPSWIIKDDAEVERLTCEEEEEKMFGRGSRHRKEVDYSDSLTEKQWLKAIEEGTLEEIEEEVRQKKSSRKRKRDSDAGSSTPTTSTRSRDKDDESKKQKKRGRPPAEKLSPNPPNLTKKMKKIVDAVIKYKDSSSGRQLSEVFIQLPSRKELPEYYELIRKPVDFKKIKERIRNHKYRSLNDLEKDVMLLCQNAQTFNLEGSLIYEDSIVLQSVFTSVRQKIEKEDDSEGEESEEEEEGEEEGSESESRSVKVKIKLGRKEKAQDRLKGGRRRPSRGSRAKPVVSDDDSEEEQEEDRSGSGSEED

| SMILES | DC50 (HiBit-BRM fusion protein) | Dmax [1] | DC50 [1] | BRM HiBit Degradation Maximum (%) (HiBit-BRM fusion protein) |
| --- | --- | --- | --- | --- |
| Cc1ncsc1-c1ccc([C@H](C)NC(=O)[C@@H]2C[C@@H](O)CN2C(=O)[C@@H](c2cc(OCCNC34CC(c5[nH]c6nnc(-c7ccccc7O)cc6c5C)(C3)C4)no2)C(C)C)cc1 (racemic) [Compound 220, (2S,4R)-4-hydroxy-1-((R)-2-(3-(2-((3-(3-(2-hydroxyphenyl)-5-methyl-7H-pyrrolo[2,3-c]pyridazin-6-yl)bicyclo[1.1.1]pentan-1-yl)amino)ethoxy)isoxazol-5-yl)-3-methylbutanoyl)-N-((S)-1-(4-(4-methylthiazol-5-yl)phenyl)ethyl)pyrrolidine-2-carboxamide] | < 10 nM | > 75% | > 10 nM | A (“A” indicates maximum degradation ≥ 75%) |
| Cc1ncsc1-c1ccc([C@H](C)NC(=O)[C@@H]2C[C@@H](O)CN2C(=O)[C@@H](c2cc(OCCN(C)CCC(=O)N3CC(c4c[nH]c5nnc(-c6ccccc6O)cc45)C3)no2)C(C)C)cc1 (racemic) [Compound 221, (2S,4R)-4-hydroxy-1-((R)-2-(3-(2-((3-(3-(3-(2-hydroxyphenyl)-7H-pyrrolo[2,3-c]pyridazin-5-yl)azetidin-1-yl)-3-oxopropyl)(methyl)amino)ethoxy)isoxazol-5-yl)-3-methylbutanoyl)-N-((S)-1-(4-(4-methylthiazol-5-yl)phenyl)ethyl)pyrrolidine-2-carboxamide] | > 100 nM | < 50% |  | B (“B” indicates maximum degradation ≥ 50%) |
| Cc1ncsc1-c1ccc([C@H](C)NC(=O)[C@@H]2C[C@@H](O)CN2C(=O)[C@@H](c2cc(OCCN(C)Cc3cc4cc(-c5ccccc5O)nnc4[nH]3)no2)C(C)C)cc1 (racemic) [Compound 222, (2S,4R)-4-hydroxy-1-((R)-2-(3-(2-(((3-(2-hydroxyphenyl)-7H-pyrrolo[2,3-c]pyridazin-6-yl)methyl)(methyl)amino)ethoxy)isoxazol-5-yl)-3-methylbutanoyl)-N-((S)-1-(4-(4-methylthiazol-5-yl)phenyl)ethyl)pyrrolidine-2-carboxamide] | > 10 nM | < 50% |  | B (“B” indicates maximum degradation ≥ 50%) |
| Cc1ncsc1-c1ccc([C@H](C)NC(=O)[C@@H]2C[C@@H](O)CN2C(=O)[C@@H](c2cc(OCCN3C[C@@H]4[C@H](C3)[C@H]4c3cc4cc(-c5cc(F)ccc5O)nnc4[nH]3)no2)C(C)C)cc1 (racemic) [Compound 224, (2S,4R)-1-((R)-2-(3-(2-((1R,5S,6R)-6-(3-(5-fluoro-2-hydroxyphenyl)-7H-pyrrolo[2,3-c]pyridazin-6-yl)-3-azabicyclo[3.1.0]hexan-3-yl)ethoxy)isoxazol-5-yl)-3-methylbutanoyl)-4-hydroxy-N-((S)-1-(4-(4-methylthiazol-5-yl)phenyl)ethyl)pyrrolidine-2-carboxamide] | > 10 nM | > 50% | > 1000 nM | A (“A” indicates maximum degradation ≥ 75%) |
| Cc1ncsc1-c1ccc([C@H](C)NC(=O)[C@@H]2C[C@@H](O)CN2C(=O)[C@@H](c2cc(OCCN3C[C@@H]4[C@H](C3)[C@H]4c3cc4cc(-c5cc(F)cc(Cl)c5O)nnc4[nH]3)no2)C(C)C)cc1 (racemic) [Compound 225, (2S,4R)-1-((R)-2-(3-(2-((1R,5S,6R)-6-(3-(3-chloro-5-fluoro-2-hydroxyphenyl)-7H-pyrrolo[2,3-c]pyridazin-6-yl)-3-azabicyclo[3.1.0]hexan-3-yl)ethoxy)isoxazol-5-yl)-3-methylbutanoyl)-4-hydroxy-N-((S)-1-(4-(4-methylthiazol-5-yl)phenyl)ethyl)pyrrolidine-2-carboxamide] | > 10 nM | < 50% |  | A (“A” indicates maximum degradation ≥ 75%) |
| Cc1ncsc1-c1ccc([C@H](C)NC(=O)[C@@H]2C[C@@H](O)CN2C(=O)[C@@H](c2cc(OCCCN3CC(c4[nH]c5nnc(-c6ccccc6O)cc5c4C)C3)no2)C(C)C)cc1 (racemic) [Compound 229, (2S,4R)-4-hydroxy-1-((R)-2-(3-(3-(3-(3-(2-hydroxyphenyl)-5-methyl-7H-pyrrolo[2,3-c]pyridazin-6-yl)azetidin-1-yl)propoxy)isoxazol-5-yl)-3-methylbutanoyl)-N-((S)-1-(4-(4-methylthiazol-5-yl)phenyl)ethyl)pyrrolidine-2-carboxamide] | > 1000 nM | < 50% |  | A (“A” indicates maximum degradation ≥ 75%) |
| Cc1ncsc1-c1ccc([C@H](C)NC(=O)[C@@H]2C[C@@H](O)CN2C(=O)[C@@H](c2cc(OCCNCCC(=O)N3CC(c4c[nH]c5nnc(-c6ccccc6O)cc45)C3)no2)C(C)C)cc1 (racemic) [Compound 230, (2S,4R)-4-hydroxy-1-((R)-2-(3-(2-((3-(3-(3-(2-hydroxyphenyl)-7H-pyrrolo[2,3-c]pyridazin-5-yl)azetidin-1-yl)-3-oxopropyl)amino)ethoxy)isoxazol-5-yl)-3-methylbutanoyl)-N-((S)-1-(4-(4-methylthiazol-5-yl)phenyl)ethyl)pyrrolidine-2-carboxamide] | > 1000 nM | < 50% |  | B (“B” indicates maximum degradation ≥ 50%) |
| Cc1ncsc1-c1ccc([C@H](C)NC(=O)[C@@H]2C[C@@H](O)CN2C(=O)C(c2cc(N3CCC(C(=O)N4CC(c5c[nH]c6nnc(-c7ccccc7O)cc56)C4)CC3)no2)C(C)C)cc1 (mixture of isomers) [Compound 231, (2S,4R)-4-hydroxy-1-((S)-2-(3-(4-(3-(3-(2-hydroxyphenyl)-7H-pyrrolo[2,3-c]pyridazin-5-yl)azetidine-1-carbonyl)piperidin-1-yl)isoxazol-5-yl)-3-methylbutanoyl)-N-((S)-1-(4-(4-methylthiazol-5-yl)phenyl)ethyl)pyrrolidine-2-carboxamide] | > 100 nM | < 50% |  | A (“A” indicates maximum degradation ≥ 75%) |

Further lines, with some results ahead:

| DC50 (HiBit-BRM fusion protein) | Dmax [1] | DC50 [1] | SMILES | BRM HiBit Degradation Maximum (%) (HiBit-BRM fusion protein) |
| --- | --- | --- | --- | --- |
| > 100 nM | > 75% | > 100 nM | Cc1ncsc1-c1ccc([C@H](C)NC(=O)[C@@H]2C[C@@H](O)CN2C(=O)[C@@H](c2cc(OCCCN3CCN(Cc4cc5cc(-c6ccccc6O)nnc5[nH]4)CC3)no2)C(C)C)cc1 (racemic) [Compound 214, (2S,4R)-4-hydroxy-1-((R)-2-(3-(3-(4-((3-(2-hydroxyphenyl)-7H-pyrrolo[2,3-c]pyridazin-6-yl)methyl)piperazin-1-yl)propoxy)isoxazol-5-yl)-3-methylbutanoyl)-N-((S)-1-(4-(4-methylthiazol-5-yl)phenyl)ethyl)pyrrolidine-2-carboxamide] | A (“A” indicates maximum degradation ≥ 75%) |
|  | < 50% |  | Cc1ncsc1-c1ccc([C@H](C)NC(=O)[C@@H]2C[C@@H](O)CN2C(=O)[C@H](c2cc(OCCCN3C[C@@H]4[C@H](C3)[C@H]4c3cc4cc(-c5ccccc5O)nnc4[nH]3)no2)C(C)C)cc1 (racemic) [Compound 215, (2S,4R)-4-hydroxy-1-((S)-2-(3-(3-((1R,5S,6S)-6-(3-(2-hydroxyphenyl)-7H-pyrrolo[2,3-c]pyridazin-6-yl)-3-azabicyclo[3.1.0]hexan-3-yl)propoxy)isoxazol-5-yl)-3-methylbutanoyl)-N-((S)-1-(4-(4-methylthiazol-5-yl)phenyl)ethyl)pyrrolidine-2-carboxamide] | C (“C” indicates maximum degradation < 50%) |
| > 100 nM | < 50% |  | Cc1ncsc1-c1ccc([C@H](C)NC(=O)[C@@H]2C[C@@H](O)CN2C(=O)[C@@H](c2cc(OCCCN3C[C@@H]4[C@H](C3)[C@H]4c3cc4cc(-c5ccccc5O)nnc4[nH]3)no2)C(C)C)cc1 (racemic) [Compound 216, (2S,4R)-4-hydroxy-1-((R)-2-(3-(3-((1R,5S,6R)-6-(3-(2-hydroxyphenyl)-7H-pyrrolo[2,3-c]pyridazin-6-yl)-3-azabicyclo[3.1.0]hexan-3-yl)propoxy)isoxazol-5-yl)-3-methylbutanoyl)-N-((S)-1-(4-(4-methylthiazol-5-yl)phenyl)ethyl)pyrrolidine-2-carboxamide] | A (“A” indicates maximum degradation ≥ 75%) |
| > 10 nM | > 75% | > 100 nM | Cc1ncsc1-c1ccc([C@H](C)NC(=O)[C@@H]2C[C@@H](O)CN2C(=O)[C@@H](c2cc(OCCNC3CC4(C3)CC(c3cc5cc(-c6ccccc6O)nnc5[nH]3)C4)no2)C(C)C)cc1 (mixture of isomers) [Compound 223, (2S,4R)-4-hydroxy-1-((R)-2-(3-(2-((6-(3-(2-hydroxyphenyl)-7H-pyrrolo[2,3-c]pyridazin-6-yl)spiro[3.3]heptan-2-yl)amino)ethoxy)isoxazol-5-yl)-3-methylbutanoyl)-N-((S)-1-(4-(4-methylthiazol-5-yl)phenyl)ethyl)pyrrolidine-2-carboxamide] | A (“A” indicates maximum degradation ≥ 75%) |
| > 100 nM | > 75% | > 100 nM | Cc1ncsc1-c1ccc([C@H](C)NC(=O)[C@@H]2C[C@@H](O)CN2C(=O)[C@@H](c2cc(OCCN3CC4(C3)CN(c3cc5cc(-c6ccccc6O)nnc5[nH]3)C4)no2)C(C)C)cc1 (racemic) [Compound 226, (2S,4R)-4-hydroxy-1-[(2R)-2-[3-(2-{6-[3-(2-hydroxyphenyl)-7H-pyrrolo[2,3-c]pyridazin-6-yl]-2,6-diazaspiro[3.3]heptan-2-yl}ethoxy)-1,2-oxazol-5-yl]-3-methylbutanoyl]-N-[(1S)-1-[4-(4-methyl-1,3-thiazol-5-yl)phenyl]ethyl]pyrrolidine-2-carboxamide] | A (“A” indicates maximum degradation ≥ 75%) |
